Reference: patent US8912121B2, “Herbicidal compositions comprising 4-amino-3-chloro-5-fluoro-6-(4-chloro-2-fluoro-3-methoxyphenyl)pyridine-2-carboxylic acid or a derivative thereof and certain PS II inhibitors” (Dow Agrosciences LLC, priority 2012, dated 2014)

What was measured:
[1] = tested on: SASKR (Salsola tragus, Russian thistle); test: Postemergence herbicidal activity of mixtures in cereal crops, greenhouse; format: in vivo, Salsola tragus L.
Method: (§1) Seeds of the desired test plant species were planted in Sun Gro MetroMix® 306 planting mixture, which typically has a pH of 6.0 to 6.8 and an organic matter content of about 30 percent, in plastic pots with a surface area of 103.2 square centimeters (cm^2). When required to ensure good germination and healthy plants, a fungicide treatment and/or other chemical or physical treatment was applied. The plants were grown for 7-36 days in a greenhouse with an approximate 14 hour photoperiod which was maintained at about 18° C. during the day and about 17° C. during the night. Nutrients and water were added on a regular basis and supplemental lighting was provided with overhead metal halide 1000-Watt lamps as necessary. The plants were employed for testing when they reached the second or third true leaf stage.
(§2) Treatments consisted of the benzyl ester of 4-amino-3-chloro-5-fluoro-6-(4-chloro-2-fluoro-3-methoxy-phenyl)pyridine-2-carboxylic acid (Compound A), formulated as an SC, a second cereal herbicide alone and then both in combination.
(§3) Other herbicidal components were applied on an active ingredient basis and included PSII-inhibiting herbicides.
(§4) Measured aliquots of benzyl ester of 4-amino-3-chloro-5-fluoro-6-(4-chloro-2-fluoro-3-methoxy-phenyl)pyridine-2-carboxylic acid (Compound A) were placed in 25 milliliter (mL) glass vials and diluted in a volume of 1.25% (v/v) Agri-Dex® crop oil concentrate to obtain stock solutions. Compound requirements are based upon a 12 mL application volume at a rate of 187 liters per hectare (L/ha). Spray solutions of the second cereal herbicide and experimental compound mixtures were prepared by adding the stock solutions to the appropriate amount of dilution solution to form 12 mL spray solution with active ingredients in two- and three-way combinations. Formulated compounds were applied to the plant material with an overhead Mandel track sprayer equipped with an 8002E nozzle calibrated to deliver 187 L/ha over an application area of 0.503 square meters (m^2) at a spray height of 18 inches (46 cm) above average plant canopy. Control plants were sprayed in the same manner with the solvent blank.
(§5) The treated plants and control plants were placed in a greenhouse as described above and watered by sub-irrigation to prevent wash-off of the test compounds. After 20-22 days, the condition of the test plants as compared with that of the control plants was determined visually and scored on a scale of 0 to 100 percent where 0 corresponds to no injury and 100 corresponds to complete kill.
(§6) Colby's equation was used to determine the herbicidal effects expected from the mixtures (Colby, S. R. 1967. Calculation of the synergistic and antagonistic response of herbicide combinations. Weeds 15:20-22).
(§7) The following equation was used to calculate the expected activity of mixtures containing two active ingredients, A and B: Expected=A+B−(A×B/100)

[2] = tested on: LAMPU (Lamium purpureum, purple deadnettle); test: as above; format: in vivo, Lamium purpureum L.
Method: as §1, §2, §3, §4, §5, §6, §7

[3] = tested on: KCHSC (Kochia scoparia, kochia); test: as above; format: in vivo, Kochia scoparia (L.) Schrad.
Method: as §1, §2, §3, §4, §5, §6, §7

[4] = tested on: SETFA (Setaria faberi, giant foxtail); test: Pre-emergence soil-applied mixtures, greenhouse; format: in vivo, Setaria faberi Herrm.; details: 27 DAA
Source text: (§8) Seeds or nutlets of the desired test plant species were planted in a soil matrix prepared by mixing a loam soil (32 percent silt, 23 percent clay, and 45 percent sand, with a pH of about 6.5 and an organic matter content of about 1.9 percent) and calcareous grit in an 80 to 20 ratio. The soil matrix was contained in plastic pots with a volume of 1 quart and a surface area of 83.6 square centimeters (cm^2).
(§9) Treatments consisted of the benzyl ester of 4-amino-3-chloro-5-fluoro-6-(4-chloro-2-fluoro-3-methoxy-phenyl)pyridine-2-carboxylic acid (compound A) formulated as an SC (suspension concentrate) and various herbicidal components alone and in combination. Forms of compound A were applied on an acid equivalent basis.
(§10) Other herbicidal components were applied on an acid equivalent or active ingredient basis and included the PSII-inhibiting herbicides, atrazine formulated as Atrazine® 90WDG, metribuzin formulated as Metribuzin 75DF, simazine formulated as Princep Caliber 90, tebuthiuron formulated as Spike 80DF, cyanazine (technical grade material), hexazinone (technical grade material), linuron (technical grade material), terbuthylazine (technical grade material), and diuron formulated as Diuron 4L.
(§11) Treatment requirements were calculated based upon the rates being tested, the concentration of active ingredient or acid equivalent in the formulation, and a 12 mL application volume at a rate of 187 L/ha.
(§12) For treatments comprised of formulated compounds, measured amounts of compounds were placed individually in 25 mL glass vials and diluted in a volume of 1.25% (v/v) Agri-Dex® crop oil concentrate (COC) to obtain 12× stock solutions. […] Application solutions were prepared by adding an appropriate amount of each stock solution (e.g., 1 mL) and diluted to the appropriate final concentrations with the addition of 10 mL of an aqueous mixture of 1.25% (v/v) COC so that the final spray solutions contained 1.25% (v/v) COC.
(§13) For treatments comprised of technical compounds, weighed amounts can be placed individually in 25 mL glass vials and dissolved in a volume of 97:3 (v/v) acetone/DMSO to obtain 12× stock solutions. […] Application solutions can be prepared by adding an appropriate amount of each stock solution (e.g., 1 mL) and diluted to the appropriate final concentrations with the addition of 10 mL of an aqueous mixture of 1.5% (v/v) COC so that the final spray solutions contain 1.25% (v/v) COC. When technical materials are used, the concentrated stock solutions can be added to the spray solutions so that the final acetone and DMSO concentrations of the application solutions are 16.2% and 0.5%, respectively.
(§14) For treatments comprised of formulated and technical compounds, weighed amounts of the technical materials can be placed individually in 25 mL glass vials and dissolved in a volume of 97:3 (v/v) acetone/DMSO to obtain 12× stock solutions, and measured amounts of the formulated compounds can be placed individually in 25 mL glass vials and diluted in a volume of 1.5% (v/v) COC or water to obtain 12× stock solutions. […] Application solutions can be prepared by adding an appropriate amount of each stock solution (e.g., 1 mL) and diluted to the appropriate final concentrations with the addition of an appropriate amount of an aqueous mixture of 1.5% (v/v) COC so that the final spray solutions contain 1.25% (v/v) COC. As required, additional water and/or 97:3 (v/v) acetone/DMSO can be added to individual application solutions so that the final acetone and DMSO concentrations of the application solutions being compared are 8.1% and 0.25%, respectively.
(§15) All stock solutions and applications solutions were visually inspected for compound compatibility prior to application. Spray solutions were applied to the soil with an overhead Mandel track sprayer equipped with a 8002E nozzles calibrated to deliver 187 L/ha over an application area of 0.503 m^2 at a spray height of 18 inches (46 cm) above average pot height. […]

[5] = tested on: CHEAL (Chenopodium album, common lambsquarters); test: Postemergence herbicidal activity of mixtures in cereal crops, greenhouse; format: in vivo, Chenopodium album L.
Method: as §1, §2, §3, §4, §5
(§16) Colby's equation was used to determine the herbicidal effects expected from the mixtures (Colby, S. R. 1967. Calculation of the synergistic and antagonistic response of herbicide combinations. Weeds 15:20-22). […]

[6] = tested on: SINAR (Sinapis arvensis, wild mustard); test: as above; format: in vivo, Sinapis arvensis L.
Method: as §1, §2, §3, §4, §5, §6, §7

[7] = tested on: VERPE (Veronica persica, Persian speedwell); test: as above; format: in vivo, Veronica persica Poir.
Method: as §1, §2, §3, §4, §5, §6, §7

[8] = tested on: AMARE (Amaranthus retroflexus, redroot pigweed); test: as above; format: in vivo, Amaranthus retroflexus L.
Method: as §1, §2, §3, §4, §5, §16

[9] = tested on: GALAP (Galium aparine, catchweed bedstraw); test: as above; format: in vivo, Galium aparine L.
Method: as §1, §2, §3, §4, §5, §6, §7

[10] = tested on: XANST (Xanthium strumarium, common cocklebur); test: Pre-emergence soil-applied mixtures, greenhouse; format: in vivo, Xanthium strumarium L.; details: 29 DAA
Source text: as §8, §9, §10, §11, §12, §13, §14, §15

[11] = tested on: IPOHE (Ipomoea hederacea, ivyleaf morningglory); test: Pre-emergence soil-applied mixtures, greenhouse; format: in vivo, Ipomoea hederacea (L.) Jacq.
Source text: as §8, §9, §10, §11, §12
For treatments comprised of technical compounds, weighed amounts can be placed individually in 25 mL glass vials and dissolved in a volume of 97:3 (v/v) acetone/DMSO to obtain 12× stock solutions. […]
For treatments comprised of formulated and technical compounds, weighed amounts of the technical materials can be placed individually in 25 mL glass vials and dissolved in a volume of 97:3 (v/v) acetone/DMSO to obtain 12× stock solutions, and measured amounts of the formulated compounds can be placed individually in 25 mL glass vials and diluted in a volume of 1.5% (v/v) COC or water to obtain 12× stock solutions. […]

In the case of `CSc1nnc(C(C)(C)C)c(=O)n1N` [Metribuzin, 4-amino-6-(1,1-dimethylethyl)-3-(methylthio)-1,2,4-triazin-5(4H)-one, reference compound], the “Visual Weed Control (%)-21 DAA SASKR Obs” value ([1]; Metribuzin 25 g ai/ha) was 8%, the “Visual Weed Control (%)-21 DAA SASKR Obs” value ([1]; Metribuzin 50 g ai/ha) was 8% and the “Visual Weed Control (%)-21 DAA SASKR Obs” value ([1]; Metribuzin 100 g ai/ha) was 67%. The “Visual Weed Control (%)-21 DAA LAMPU Obs” value ([2]; Metribuzin 25 g ai/ha) was 3%, the “Visual Weed Control (%)-21 DAA LAMPU Obs” value ([2]; Metribuzin 50 g ai/ha) was 15% and the “Visual Weed Control (%)-21 DAA LAMPU Obs” value ([2]; Metribuzin 100 g ai/ha) was 23%. The “Visual Weed Control (%)-21 DAA KCHSC Obs” value ([3]; Metribuzin 25 g ai/ha) was 0%, the “Visual Weed Control (%)-21 DAA KCHSC Obs” value ([3]; Metribuzin 50 g ai/ha) was 8% and the “Visual Weed Control (%)-21 DAA KCHSC Obs” value ([3]; Metribuzin 100 g ai/ha) was 88%. The “Visual Weed Control (%) Obs” value ([4]; 210 g ai/ha) was 43%, the “Visual Weed Control (%) Obs” value ([4]; 420 g ai/ha) was 83% and the “Visual Weed Control (%)-21 DAA CHEAL Obs” value ([5]; Metribuzin 25 g ai/ha) was 0%. For the same compound, the “Visual Weed Control (%)-21 DAA CHEAL Obs” value ([5]; Metribuzin 50 g ai/ha) was 55%, the “Visual Weed Control (%)-21 DAA SINAR Obs” value ([6]; Metribuzin 25 g ai/ha) was 8% and the “Visual Weed Control (%)-21 DAA SINAR Obs” value ([6]; Metribuzin 50 g ai/ha) was 15%.
`CC(C)c1ccc(NC(=O)N(C)C)cc1` [Isoproturon, N,N-dimethyl-N′-[4-(1-methylethyl)phenyl]urea, reference compound] was tested, and the “Visual Weed Control (%) - 21 DAA VERPE Obs” value ([7]; Isoproturon 375 g ai/ha) was 8%, the “Visual Weed Control (%) - 21 DAA VERPE Obs” value ([7]; Isoproturon 750 g ai/ha) was 10% and the “Visual Weed Control (%) - 21 DAA VERPE Obs” value ([7]; Isoproturon 1500 g ai/ha) was 13%. For the same compound, the “Visual Weed Control (%)-21 DAA LAMPU Obs” value ([2]; Isoproturon 375 g ai/ha) was 3%, the “Visual Weed Control (%)-21 DAA LAMPU Obs” value ([2]; Isoproturon 750 g ai/ha) was 3% and the “Visual Weed Control (%)-21 DAA LAMPU Obs” value ([2]; Isoproturon 1500 g ai/ha) was 13%. For the same compound, the “Visual Weed Control (%) - 21 DAA AMARE Obs” value ([8]; Isoproturon 375 g ai/ha) was 3%, the “Visual Weed Control (%) - 21 DAA AMARE Obs” value ([8]; Isoproturon 750 g ai/ha) was 10% and the “Visual Weed Control (%) - 21 DAA GALAP Obs” value ([9]; Isoproturon 375 g ai/ha) was 5%. For the same compound, the “Visual Weed Control (%) - 21 DAA GALAP Obs” value ([9]; Isoproturon 750 g ai/ha) was 5%, the “Visual Weed Control (%) - 21 DAA GALAP Obs” value ([9]; Isoproturon 1500 g ai/ha) was 27% and the “Visual Weed Control (%)-21 DAA SINAR Obs” value ([6]; Isoproturon 375 g ai/ha) was 13%. The “Visual Weed Control (%)-21 DAA SINAR Obs” value ([6]; Isoproturon 750 g ai/ha) was 40%.
`CNC(=O)N(C)c1nnc(C(C)(C)C)s1` [Tebuthiuron, N-[5-(1,1-dimethylethyl)-1,3,4-thiadiazol-2-yl]-N,N′-dimethylurea, reference compound] was tested, and the “Visual Weed Control (%) - 29 DAA XANST Obs” value ([10]; Tebuthiuron 210 g ai/ha) was 40%, the “Visual Weed Control (%) - 29 DAA XANST Obs” value ([10]; Tebuthiuron 3360 g ai/ha) was 95% and the “Visual Weed Control (%) - 33 DAA IPOHE Obs” value ([11]; Tebuthiuron 420 g ai/ha) was 87%. The “Visual Weed Control (%) - 33 DAA IPOHE Obs” value ([11]; Tebuthiuron 840 g ai/ha) was 90%.
